Measurements taken from patent publication US20240216412A1, “OXIDIZED NICOTINAMIDE ADENINE DINUCLEOTIDE (NAD+) PRECURSOR TREATMENT FOR HEART FAILURE ALLEVIATION INDEPENDENT OF MITOCHONDRIAL PROTEIN DEACETYLATION” (University of Washington, priority 2022, published 2024).

System: chronic pressure overload (TAC) induced heart failure in WT and Sirt3Ko mice
Test: Transthoracic echocardiography after transverse aortic constriction (TAC) or sham surgery
Assay type: in vivo, mouse
Settings: for EF / FS / IVS; s / LV Mass / LV Mass (corr.) / LV Vol; d / LV Vol; s / LVID; d / LVID; s / LVPW; d / LVPW; s: NR; for IVS; d: NR 500 mg/kg body weight daily for eight weeks
From the text: The present disclosure provides boosting intracellular NAD^+ with nicotinamide riboside chloride (NR) to protect Sirtuin 3 (Sirt3) knockout mice from heart failure. NR is a natural NAD precursor that bypasses nicotinamide phosphoribosyltransferase (NAMPT) to stimulate intracellular NAD^+ synthesis via the Nrk reaction (Bieganowski and Brenner, 2004; Canto et al., 2012; Diguet et al., 2018; Trammell et al., 2016). […] Immunoblotting confirmed the absence of Sirt3 and increased lysine acetylation in mitochondrial extracts from the knockout hearts (FIG. 9A). Pressure overload was induced by transverse aortic constriction (TAC) surgery for 12 weeks. Intracellular NAD^+ level was increased when mice had already developed cardiac hypertrophy and dysfunction, to model a therapeutic approach (FIG. 1A). After 4 weeks of chronic pressure overload, cardiac function was assessed using trans-thoracic M-mode echocardiography.
Mice randomly received either NR (500 mg/kg body weight) (Canto et al., 2012) or vehicle saline daily for eight-weeks. Representative M-mode images for the echocardiography can be found in FIGS. 1C and 1D. Four weeks of chronic pressure overload caused similar declines in left ventricular fractional shortening (FS %) in mice randomized to NR or vehicle groups for either WT or Sirt3Ko (FIGS. 1E and 1F). […] Similar to NR treated WT, cardiac hypertrophy, left ventricular cavity dilation, and lung edema were less severe in Sirt3Ko TAO mice that received NR treatment (FIGS. 1B-1J). All echocardiography parameters can be found in Table 1 below.
All procedures involving animal use were approved by the Institutional Animal Care and Use Committee (IACUC) of the University of Washington. Wild-type mice (129S1/SvlmJ Stock No: 002448) and Sirtuin 3 knockout mice (129-Sirt3tm1.1Fwa/J Stock No: 012755) were purchased from Jackson Laboratories. All mice were housed at 22° C. with a 12-hr light, 12-hr dark cycle with free access to water and standard chow. Male mice were used for experiments in this study.
Transverse aortic constriction. Male mice (3-4 months old) underwent transverse aortic constriction (TAC) or sham surgery. Briefly, mice were anesthetized with an IP injection of 130 mg/kg ketamine and 8.8 mg/kg xylazine in saline. Mice were intubated with 20 G cannula and ventilated 140 breaths per minute by small animal TOPO ventilator (Kent Scientific). The aortic arch was exposed via a left thoracotomy and by carefully separating the thymus. A constriction of the transverse aorta was generated by tying a 6-0 Ethilon ligature against a 27-gauge blunt needle around the aorta between the brachiocephalic and left common carotid arteries. Promptly the needle was removed and the chest and skin were closed by 5-0 polypropylene suture. The animal was removed from ventilation and kept on a heating blanket during recovery from anesthesia. SR buprenorphine (0.05 mg/kg) was administered subcutaneously for analgesia. Sham operated mice underwent all the same procedures as TAC mice excluding the constriction of the aorta. All mice were monitored every 12 h during the first 72 h post-surgery, followed by daily visits over the next 4 weeks.
Transthoracic Echocardiography. Echocardiography of hearts was performed at indicated time after surgery using the VEVO 2100 high-frequency, high-resolution digital imaging system (VisualSonics) equipped with a MS400 Microscan Transducer on anesthetized mice (0.5%-2% isoflurane in 95% oxygen). Measurements were made when heart rate was >450 bpm. Cardiac function and geometry measurements were measured in parasternal short axis view. M-mode images were used for analysis and calculated by the average of at least three cardiac cycles and carried out in a blind fashion. Hearts were harvested at 12-week post-surgery for subsequent experiments and biochemical assays.

Q: NC(=O)c1ccc[n+]([C@@H]2O[C@H](CO)[C@@H](O)[C@H]2O)c1 [NR, Nicotinamide riboside chloride] was tested. Which “Left ventricular cavity dilation” value (Sirt3Ko TAC mice, similar to NR treated WT) did it give?
A: less severe

Q: What about the “Advances of heart failure” value (Sirt3Ko TAC mice, vs vehicle treatment) of the same compound?
A: protected the Sirt3Ko TAO mice from advances of heart failure

Q: What about the EF (Sirt3Ko, Sham) of the same compound?
A: 71.3%

Q: What about the FS (Sirt3Ko, Sham) of the same compound?
A: 39.7%

Q: What about the “IVS; s” value (Sirt3Ko, Sham) of the same compound?
A: 1.49 mm

Q: What about the “LV Mass” value (Sirt3Ko, Sham) of the same compound?
A: 146.9 mg

Q: And the “LV Mass (corr.)” value (Sirt3Ko, Sham)?
A: 117.5 mg

Q: What about the “LV Vol; d” value (Sirt3Ko, Sham) of the same compound?
A: 42.0 µL

Q: And the “LV Vol; s” value (Sirt3Ko, Sham)?
A: 12.1 µL

Q: And the “LVID; d” value (Sirt3Ko, Sham)?
A: 3.21 mm

Q: And the “LVID; s” value (Sirt3Ko, Sham)?
A: 1.94 mm

Q: And the “LVPW; d” value (Sirt3Ko, Sham)?
A: 1.30 mm

Q: What about the “LVPW; s” value (Sirt3Ko, Sham) of the same compound?
A: 1.69 mm

Q: What about the “IVS; d” value (Sirt3Ko, Sham) of the same compound?
A: 1.04 mm

Q: What about the EF (Sirt3Ko, TAC) of the same compound?
A: 59.2%

Q: And the FS (Sirt3Ko, TAC)?
A: 30.9%

Q: And the “IVS; s” value (Sirt3Ko, TAC)?
A: 1.67 mm

Q: What about the “LV Mass” value (Sirt3Ko, TAC) of the same compound?
A: 168.9 mg

Q: What about the “LV Mass (corr.)” value (Sirt3Ko, TAC) of the same compound?
A: 135.1 mg

Q: And the “LV Vol; d” value (Sirt3Ko, TAC)?
A: 47.8 µL

Q: What about the “LV Vol; s” value (Sirt3Ko, TAC) of the same compound?
A: 19.8 µL

Q: What about the “LVID; d” value (Sirt3Ko, TAC) of the same compound?
A: 3.39 mm

Q: And the “LVID; s” value (Sirt3Ko, TAC)?
A: 2.35 mm

Q: What about the “LVPW; d” value (Sirt3Ko, TAC) of the same compound?
A: 1.22 mm

Q: What about the “LVPW; s” value (Sirt3Ko, TAC) of the same compound?
A: 1.51 mm

Q: What about the “IVS; d” value (Sirt3Ko, TAC) of the same compound?
A: 1.22 mm

Q: And the “Fractional shortening (FS %)” value (WT TAC mice, 8-week treatment)?
A: preserved FS %

Q: And the EF (Wildtype, Sham)?
A: 78.9%

Q: And the FS (Wildtype, Sham)?
A: 46.3%

Q: And the “IVS; s” value (Wildtype, Sham)?
A: 1.72 mm

Q: What about the “LV Mass” value (Wildtype, Sham) of the same compound?
A: 141.9 mg

Q: And the “LV Mass (corr.)” value (Wildtype, Sham)?
A: 113.5 mg

Q: And the “LV Vol; d” value (Wildtype, Sham)?
A: 37.3 µL

Q: And the “LV Vol; s” value (Wildtype, Sham)?
A: 7.9 µL

Q: What about the “LVID; d” value (Wildtype, Sham) of the same compound?
A: 3.07 mm

Q: And the “LVID; s” value (Wildtype, Sham)?
A: 1.65 mm

Q: What about the “LVPW; d” value (Wildtype, Sham) of the same compound?
A: 1.27 mm

Q: And the “LVPW; s” value (Wildtype, Sham)?
A: 1.64 mm

Q: And the “IVS; d” value (Wildtype, Sham)?
A: 1.12 mm

Q: What about the EF (Wildtype, TAC) of the same compound?
A: 62.5%

Q: And the FS (Wildtype, TAC)?
A: 32.7%

Q: What about the “IVS; s” value (Wildtype, TAC) of the same compound?
A: 1.78 mm

Q: What about the “LV Mass” value (Wildtype, TAC) of the same compound?
A: 183.9 mg

Q: What about the “LV Mass (corr.)” value (Wildtype, TAC) of the same compound?
A: 147.1 mg

Q: And the “LV Vol; d” value (Wildtype, TAC)?
A: 36.7 µL

Q: And the “LV Vol; s” value (Wildtype, TAC)?
A: 13.7 µL

Q: And the “LVID; d” value (Wildtype, TAC)?
A: 3.04 mm

Q: And the “LVID; s” value (Wildtype, TAC)?
A: 2.04 mm

Q: What about the “LVPW; d” value (Wildtype, TAC) of the same compound?
A: 1.52 mm

Q: And the “LVPW; s” value (Wildtype, TAC)?
A: 1.85 mm

Q: What about the “IVS; d” value (Wildtype, TAC) of the same compound?
A: 1.30 mm
